Target: T1, human TLR8 (Homo sapiens, UniProt Q9NR97)
T1 construct: host or cells: HEK293
T1 sequence (Q9NR97 27-1041): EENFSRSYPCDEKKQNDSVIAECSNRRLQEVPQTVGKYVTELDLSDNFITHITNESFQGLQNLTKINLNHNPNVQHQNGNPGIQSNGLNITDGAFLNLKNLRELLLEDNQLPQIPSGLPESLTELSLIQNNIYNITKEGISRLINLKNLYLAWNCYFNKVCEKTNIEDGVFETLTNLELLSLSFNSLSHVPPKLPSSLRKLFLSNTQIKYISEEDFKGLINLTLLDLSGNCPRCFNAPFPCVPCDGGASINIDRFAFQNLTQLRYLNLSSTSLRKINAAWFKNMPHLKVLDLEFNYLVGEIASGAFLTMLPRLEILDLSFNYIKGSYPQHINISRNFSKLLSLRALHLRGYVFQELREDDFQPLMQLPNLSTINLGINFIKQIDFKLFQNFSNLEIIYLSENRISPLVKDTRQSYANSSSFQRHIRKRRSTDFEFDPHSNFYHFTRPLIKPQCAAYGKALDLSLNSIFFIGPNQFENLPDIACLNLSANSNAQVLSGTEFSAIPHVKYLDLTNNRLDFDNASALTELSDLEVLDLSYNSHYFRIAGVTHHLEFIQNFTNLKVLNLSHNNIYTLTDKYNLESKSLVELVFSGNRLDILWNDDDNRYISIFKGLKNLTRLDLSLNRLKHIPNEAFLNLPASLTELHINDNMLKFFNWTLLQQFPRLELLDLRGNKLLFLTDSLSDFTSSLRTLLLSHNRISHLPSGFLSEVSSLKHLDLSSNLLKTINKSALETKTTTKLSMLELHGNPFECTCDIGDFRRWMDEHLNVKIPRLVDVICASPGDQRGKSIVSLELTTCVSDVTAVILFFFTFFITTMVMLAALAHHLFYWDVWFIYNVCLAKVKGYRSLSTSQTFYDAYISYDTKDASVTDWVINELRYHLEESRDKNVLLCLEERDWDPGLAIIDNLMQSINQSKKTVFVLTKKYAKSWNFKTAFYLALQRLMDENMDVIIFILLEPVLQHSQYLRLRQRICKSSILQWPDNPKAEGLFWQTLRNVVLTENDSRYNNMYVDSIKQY
Test: TLR8 reporter cell assay (HEK293 cells stably expressing human TLR8 with NF-κB-driven SEAP reporter)
Type: cell-based
Conditions: concentrations up to 500 μM; significant = >5% of ymax
Description: The engagement of TLRs by cognate ligands triggers downstream signaling cascades, leading to the activation of NF-κB and other transcription factors which initiate various immunomodulatory effects. The human embryonic kidney cell line, HEK293, is essentially non-responsive to TLR agonists, but ectopic expression of TLRs in these cells allows cognate agonists to activate endogenous NF-κB. Accordingly, the HEK293-TLR-NF-κB inducible reporter system is used to assay TLR agonists.
HEK293 cell lines stably expressing human TLR7 or TLR8 together with an NF-κB-driven-secreted alkaline phosphatase (SEAP) reporter were invented at InvivoGen (San Diego, California, USA) and used to assess compounds of the present invention for TLR7 and TLR8 agonist activities. Cells were seeded at 2-5×10^4 cells/well in 96 well plates (200 μl/well) and treated with various concentrations of compound (10 μl) for 15-24 hours. SEAP activity was determined by measuring OD at 650 nm; the media used to culture the cell lines contains the reagents required for SEAP detection. […]

activity in TLR8 reporter cell assay (% of ymax for TLR8 as measured at 28.5 μM resiquimod): > 5 % of ymax
SMILES: CC[C@H](O)[C@@H]1C[C@@H](O)[C@H](n2c(=O)sc3c(=O)[nH]c(N)nc32)O1 [Compound A, 5-amino-3-((2R,3R,5S)-3-hydroxy-5-((S)-1-hydroxypropyl)tetrahydrofuran-2-yl)thiazolo[4,5-d]pyrimidine-2,7(3H,6H)-dione, reference compound]

From patent publication US12187759B2, “TLR7 agonists” (Primmune Therapeutics, Inc., priority 2019, dated 2025)
